pEC50: −log10 of the molar value. Where two headings read alike, the source gives them in different places. Blank lines part the entries; values can stand above or below the molecule they belong to.
Key:
[1] = target: T1, mRORγ (Mus musculus, UniProt P51450); test: Transcriptional assay, Gal4-mRORγ with luciferase reporter in CHO cells; format: cell-based
T1 construct: expressed in transfected cells; host or cells: CHO cells, transient transfection
Method: The complete Gal4-mRORγ nucleotide sequence is shown below:
(§1) A firefly luciferase reporter gene for Gal4 DBD hybrid receptors, such as Gal4-RORγ, contains five copies of the Gal4 17-mer response element in its promoter and the coding sequence for firefly luciferase (pG5-luc, Promega). CHO (Chinese Hamster Ovary) cells were cultured in Ham's F12 medium supplemented with 10% fetal calf serum (Gemini Biologicals), 10 μg/ml penicillin and streptomycin, and were maintained in a humidified 37° C. incubator (Thermo Electron, Steri-Cycle) with 5% CO2. 24 hours before transfection, cells were plated in T175 flasks (5×10^6 cells/flask) or T75 flasks (1.7×10^6 cells/flask). Transient transfection of CHO cells was performed using TransIT-CHO reagents (Minis, Madison, Wis.) with a mixing ratio of 2:6:1 between plasmid DNA (in μg), TransIT-CHO (in μl) and CHO-mojo (in μl).
(§2) Plates are maintained at 37° C. in a humidified atmosphere with 7% CO2 overnight. Four (4) hours after cell seeding, compounds dissolved in DMSO at 10 mM were added to cells at final concentrations of 20 micromolar (μM) to 20 nanomolar (nM) in 0.2% DMSO in triplicate plates. Approximately 40 hours later, cytotoxicity in the assay well was characterized by addition of the dye resazurin (O'Brien, Wilson et al. 2000) to a final concentration of 3 μM. […] Percent viability was determined as 2 hour fluorescence, minus background at t=0 hours, normalized to DMSO controls. For detection of luciferase activity, media was removed from plates after the measurement of resazurin conversion, and SteadyLite luciferase reagent (Perkin-Elmer) was added (30 μl/well). Luminescence is detected with a Victor 2-V plate reader (Perkin-Elmer) and normalized to luciferase activity of DMSO control wells alone.

[2] = target: T2, mRORγ LBD (Mus musculus, UniProt P51450); test: Biochemical assay, coregulatory peptide recruitment to GST-RORγ LBD (FRET)
T2 construct: made in house; host or cells: Sf9 insect cells, baculovirus; cleared lysate used directly
T2 sequence (P51450 251-516): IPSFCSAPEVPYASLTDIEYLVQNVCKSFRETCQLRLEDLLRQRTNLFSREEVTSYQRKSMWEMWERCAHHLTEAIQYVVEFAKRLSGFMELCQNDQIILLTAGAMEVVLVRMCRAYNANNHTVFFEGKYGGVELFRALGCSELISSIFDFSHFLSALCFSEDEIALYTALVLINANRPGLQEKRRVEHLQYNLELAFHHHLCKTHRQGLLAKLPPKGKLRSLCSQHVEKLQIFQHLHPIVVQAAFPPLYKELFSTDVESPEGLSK
Description: GST-RORγ was generated by subcloning the RORγ-LBD into pET-41a, a vector which expresses GST fusion proteins in bacteria.
The cloning steps for GST-RORγ were as follows. The mRORγ LBD was excised from Gal4-mRORγ (see above for cloning steps) at BamHI and HindIII sites of Sequence 1 and cloned into the corresponding sites of pET-41a(+) (EMD Biosciences, San Diego, Calif.). A GST-mRORγ fragment was then excised from pET-41a(+) at XbaI and XhoI sites and cloned into a pcDNA3.1vector (Invitrogen, Carlsbad, Calif.) restricted at NheI and XhoI sites. Plasmid GST-mRORγ-pcDNA3.1 was used as a PCR template to generate a GST-mRORγ fragment that was later cloned into pENTR/D-TOPO vector (Invitrogen, Carlsbad, Calif.) by standard cloning techniques recommended by the manufacturer of the vector. The nucleotide sequence of GST-mRORγ is shown below:
For baculoviral expression of RORγ, the cDNA fragment of GST-RORγ— LBD, was subcloned from pET-41a into the pENTR/D-TOPO vector using a commercially-available kit (BaculoDirect, Invitrogen). Briefly, GST-RORγ carried by pENTR/D-TOPO was transfected into mono-layer Sf9 cells (8×10^5/well in 6-well plates) by Cellfectin (Invitrogen). Sf9 cells were incubated at 27° C. in a non-humidified incubator for 72 hours. Cell media was collected as P1 viral stock and used to further infect Sf9 cells to generate P2 and P3 virus. […] A plaque assay was performed to determine the titer of P3 virus and to isolate single plaques. P4 virus was generated from a single plaque and propagated on a larger scale.
Adherent SF9 cells were infected with baculovirus carrying GST-RORγ and were cultured for 72 hours. Sf9 cell were then subject to a brief sonication in a lysis buffer (20 mM phosphate, pH 6.8, 50 mM KCl, 50 mM NaCl, 0.5 mM EDTA, 50% glycerol, 0.001% NP-40 and 1 mM DTT) and centrifuged at 3000 rpm for 15 minutes. […] Cleared cell lysate was stored at −70° C. and is directly utilized in the coregulatory peptide recruitment assay.
The labeled probes anti-GST-APC and SA-RPE were purchased from Prozyme (San Leandro, Calif.). Compounds were added directly from a DMSO solution to a final concentration of 1-2% DMSO. Fluorescence was measured on a Wallac Victor 2 V plate reader equipped with a 670/40 nm filter (Omega Optical, Brattleboro, Vt.) for APC emission (Channel A) and a 600/25 bandpass filter for monitoring the RPE emission (Channel B).

[3] = target: T3, mLXRα (Liver X receptor alpha) (Mus musculus, UniProt Q9Z0Y9); test: Transcriptional assay of LXRα (Gal4-LXRα hybrid); format: cell-based
T3 construct: 172-455; expressed in transfected cells; host or cells: CHO cells, transient transfection
T3 sequence (Q9Z0Y9 172-445 limits assumed): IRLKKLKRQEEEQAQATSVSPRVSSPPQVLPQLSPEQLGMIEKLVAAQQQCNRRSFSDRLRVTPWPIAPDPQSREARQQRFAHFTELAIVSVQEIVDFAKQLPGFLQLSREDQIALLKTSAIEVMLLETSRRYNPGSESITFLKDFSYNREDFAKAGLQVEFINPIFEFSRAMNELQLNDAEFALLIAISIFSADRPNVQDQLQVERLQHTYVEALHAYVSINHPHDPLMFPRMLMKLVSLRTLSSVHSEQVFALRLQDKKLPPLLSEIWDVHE
Method: as §1, §2
A transcriptional assay for LXRα, using a Gal4-LXRα hybrid, was implemented in order to compare RORγ ligand potencies. In addition to LXRα, transcriptional assays for a number of other major nuclear receptors were developed.

[4] = Table 2, agonists, antagonist OR-376 (1.5 μM) added to reduce basal transcriptional activity, read-out: EC50 in micromolar at mRORγ Transcriptional
[5] = Table 2, agonists, biotinylated peptide K, 50% of estimated maximum FRET signal, read-out: EC50 in micromolar at mRORγ Biochemical
[6] = Table 1, antagonists, inhibition of basal Gal4-mRORγ transcription in CHO cells, read-out: Assay EC50 in micromolar at mRORγ Transcriptional
[7] = Table 7, taken from Table 1, read-out: Assay EC50 in micromolar at mRORγ Transcriptional
[8] = Table 1, mRORγ and peptide K1, read-out: Assay EC50 in micromolar at mRORγ Biochemical
[9] = Table 7, taken from Table 1 (peptide K1), read-out: Assay EC50 in micromolar at mRORγ Biochemical
[10] = Table 7, no unit printed for this column (b114 gives 1.5 μM for OR-1050), read-out: Transcriptional Assay of LXRα EC50

T1 sequence (P51450 with tags, fused parts or gaps): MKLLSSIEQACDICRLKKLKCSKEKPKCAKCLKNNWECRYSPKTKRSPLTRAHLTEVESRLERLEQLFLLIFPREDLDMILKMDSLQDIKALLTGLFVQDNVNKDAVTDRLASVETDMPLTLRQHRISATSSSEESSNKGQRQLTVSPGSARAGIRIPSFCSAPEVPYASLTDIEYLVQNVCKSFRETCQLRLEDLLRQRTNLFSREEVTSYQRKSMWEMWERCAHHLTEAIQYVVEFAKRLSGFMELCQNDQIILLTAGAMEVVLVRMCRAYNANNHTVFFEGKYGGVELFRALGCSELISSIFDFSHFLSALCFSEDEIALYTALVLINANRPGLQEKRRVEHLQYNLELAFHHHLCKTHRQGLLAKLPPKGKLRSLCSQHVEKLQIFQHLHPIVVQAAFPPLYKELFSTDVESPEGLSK

SMILES: CC(CCC(=O)O)C1CCC2C1CCC1C3CCC(O)CC3C(O)CC21 (centres unmarked) [OR-412, 4-(3,6-Dihydroxy-hexadecahydro-cyclopenta[a]phenanthren-17-yl)-pentanoic acid]
pEC50 [1, 4]: < 4.70
pEC50 [2, 5]: < 4.00

SMILES: COC(=O)CCC(C)C1CCC2C3CC(O)C4CC(O)CCC4(C)C3CCC12C (centres unmarked) [OR-942, 4-(3,6-Dihydroxy-10,13-dimethyl-hexadecahydro-cyclopenta[a]phenanthren-17-yl)-pentanoic acid methyl ester]
pEC50 [1, 4]: 5.82
activation of RORγ transcriptional activity ([1]; in the presence of one micromolar antagonist T0901317, CHO cells (FIG. 4A)): approximately 8 fold
pEC50 ([2]; GST-RORγ and peptide K, in the presence of antagonist T0901317 (FIG. 5), read-out: estimated EC50 in biochemical assay, shifted by antagonist): 5.40
pEC50 ([2]; GST-RORγ and peptide K, without T0901317 (FIG. 5), read-out: estimated EC50 in biochemical assay): 6.40
pEC50 [2, 5]: 6.92

SMILES: CCN(c1ccc(C(OC)(C(F)(F)F)C(F)(F)F)cc1)S(=O)(=O)c1ccccc1 [OR-1030, N-Ethyl-N-[4-(2,2,2-trifluoro-1-methoxy-1-trifluoromethyl-ethyl)-phenyl]-benzenesulfonamide]
pEC50 [1, 6]: < 4.70
pEC50 [1, 7]: < 4.70
pEC50 [2, 8]: < 4.00
pEC50 [2, 9]: < 4.00
Emax [3]: < 5%
pEC50 [3, 10]: < 4.00

SMILES: CCN(c1ccc(C(O)(C(F)(F)F)C(F)(F)F)cc1)S(=O)(=O)c1ccccc1 [OR-1031, N-Ethyl-N-[4-(2,2,2-trifluoro-1-hydroxy-1-trifluoromethyl-ethyl)-phenyl]-benzenesulfonamide]
pEC50 ([1]; Assay EC50 in micromolar at mRORγ Transcriptional, Table 1, antagonists, inhibition of basal Gal4-mRORγ transcription in CHO cells): 5.85
pEC50 ([1]; Assay EC50 in micromolar at mRORγ Transcriptional, Table 7, taken from Table 1): 5.85
pEC50 [2]: 5.46
pEC50 [3]: 5.85
Emax [3]: > 80%

SMILES: O=C(O)CN(c1ccc(C(O)(C(F)(F)F)C(F)(F)F)cc1)S(=O)(=O)c1ccccc1 [OR-1046, {Benzenesulfonyl-[4-(2,2,2-trifluoro-1-hydroxy-1-trifluoromethyl-ethyl)-phenyl]-amino}-acetic acid]
pEC50 [1, 6]: < 4.70
pEC50 [1, 7]: < 4.70
pEC50 [2, 8]: < 4.00
pEC50 [2, 9]: < 4.00
Emax [3]: < 5%
pEC50 [3, 10]: < 4.00

SMILES: CNC(=O)CCC(C)C1CCC2C1CCC1C3CCC(O)CC3C(O)CC21 (centres unmarked) [OR-12867, 4-(3,6-Dihydroxy-hexadecahydro-cyclopenta[a]phenanthren-17-yl)-pentanoic acid methylamide]
pEC50 [1, 4]: < 4.70

SMILES: CC(CCC(=O)N1CCCCC1)C1CCC2C1CCC1C3CCC(O)CC3C(O)CC21 (centres unmarked) [OR-12869, 4-(3,6-Dihydroxy-hexadecahydro-cyclopenta[a]phenanthren-17-yl)-1-piperidin-1-yl-pentan-1-one]
pEC50 [1, 4]: < 4.70

Further lines, results first:

pEC50 ([1]; Table 3, steroidal antagonists, read-out: Assay EC50 in micromolar transcriptional): 5.30
pEC50 ([2]; Table 3, peptide K and 1 μM OR-942, inhibition of the OR-942 baseline by 50%, read-out: Assay EC50 in micromolar biochemical): 4.90
SMILES: C[C@@H]1CC[C@@]2(OC1)O[C@H]1C[C@H]3[C@@H]4CC[C@H]5C[C@@H](O)CC[C@]5(C)[C@H]4C(=O)[C@@H](O)[C@]3(C)[C@H]1[C@@H]2C [OR-345, 5α, 20α, 22α, 25D-SPIROSTAN-3β, 12β-DIOL-11-ONE]

pEC50 [1, 4]: 5.39
pEC50 [2, 5]: 6.17
SMILES: CC(CCCO)C1CCC2C3CC(O)C4CC(O)CCC4(C)C3CCC12C (centres unmarked) [OR-12863, 17-(4-Hydroxy-1-methyl-butyl)-10,13-dimethyl-hexadecahydro-cyclopenta[a]phenanthrene-3,6-diol]

pEC50 [1, 4]: 5.22
pEC50 [2, 5]: 6.64
SMILES: COCCCC(C)C1CCC2C3CC(O)C4CC(O)CCC4(C)C3CCC12C (centres unmarked) [OR-12864, 17-(4-Methoxy-1-methyl-butyl)-10,13-dimethyl-hexadecahydro-cyclopenta[a]phenanthrene-3,6-diol]

pEC50 [1, 4]: 5.08
pEC50 [2, 5]: 6.68
SMILES: CC(CCC(C)(C)O)C1CCC2C3CC(O)C4CC(O)CCC4(C)C3CCC12C (centres unmarked) [OR-12865, 17-(4-Hydroxy-1,4-dimethyl-pentyl)-10,13-dimethyl-hexadecahydro-cyclopenta[a]phenanthrene-3,6-diol]

pEC50 [1, 4]: 6.25
pEC50 [2, 5]: 6.85
SMILES: COC(C)(C)CCC(C)C1CCC2C3CC(O)C4CC(O)CCC4(C)C3CCC12C (centres unmarked) [OR-12866, 17-(4-Methoxy-1,4-dimethyl-pentyl)-10,13-dimethyl-hexadecahydro-cyclopenta[a]phenanthrene-3,6-diol]

pEC50 [1, 4]: 5.28
pEC50 [2, 5]: 6.25
SMILES: CC(CCC(=O)N(C)C)C1CCC2C3CC(O)C4CC(O)CCC4(C)C3CCC12C (centres unmarked) [OR-12868, 4-(3,6-Dihydroxy-10,13-dimethyl-hexadecahydro-cyclopenta[a]phenanthren-17-yl)-pentanoic acid dimethylamide]

pEC50 [1, 4]: 5.39
SMILES: CC(=O)CCC(C)C1CCC2C3CC(O)C4CC(O)CCC4(C)C3CCC12C (centres unmarked) [OR-12870, 5-(3,6-Dihydroxy-10,13-dimethyl-hexadecahydro-cyclopenta[a]phenanthren-17-yl)-hexan-2-one]

pEC50 [1, 4]: 5.08
pEC50 [2, 5]: 6.60
SMILES: CC(O)CCC(C)C1CCC2C3CC(O)C4CC(O)CCC4(C)C3CCC12C (centres unmarked) [OR-12871, 17-(4-Hydroxy-1-methyl-pentyl)-10,13-dimethyl-hexadecahydro-cyclopenta[a]phenanthrene-3,6-diol]
